In patent publication US5874078A, “Reagent composition of glutamate dehydrogenase from pseudomonas” (Toyo Boseki Kabushiki Kaisha, priority 1994, dated 1999):
Read-outs that look alike come from different tables or passages of the source.

Assays:
[1] = tested on: glutamate dehydrogenase from Pseudomonas sp. 433-3 (FERM P-14092); experiment: Km values of glutamate dehydrogenase; assay type: biochemical
Description: The above reaction mixture solution (2.9 ml) is taken in a cuvette and subjected to a preliminary heating at 30° C. for about five minutes. Then the reaction is initiated by adding 0.1 ml of an enzyme solution thereto, decrease in absorbance of 340 nm in a spectrophotometer controlled at 30° C. is recorded for 3-4 minutes and, out of its linear portion, the decrease in the absorbance per minute is determined. A blank test is carried out according to the same operations as above except that 0.1M Tris-HCl buffer (pH: 8.3) is added instead of the enzyme solution. […]
The above reaction mixture solution (2.9 ml) was taken in a cuvette and subjected to a preliminary heating at 30° C. for about five minutes. Then the reaction was initiated by adding 0.1 ml of an enzyme solution thereto, […] at 30° C. was recorded for 3-4 minutes and, out of its linear portion, the decrease in the absorbance per minute was determined. A blank test was carried out according to the same operations as above except that 0.1M Tris-HCl buffer (pH: 9.0) was added instead of the enzyme solution.

[2] = tested on: NAD+-dependent glutamate dehydrogenase (EC 1.4.1.2) from Clostridium sp. SB4; settings: read-out: Km Value to NH3; Table 3; The Enzymes, 3rd Ed. 11, 293 (1975); cited from earlier work
[3] = tested on: NAD+-dependent glutamate dehydrogenase (EC 1.4.1.2) from Synechocystis sp.; settings: read-out: Km Value to NH3; Table 3; FEBS Lett. 285, 35 (1991); cited from earlier work
[4] = biological target: NAD+-dependent glutamate dehydrogenase (EC 1.4.1.2) from Peptococcus aerogene (Peptoniphilus asaccharolyticus, UniProt P28997); settings: read-out: Km Value to NH3; Table 3; Can. J. Microbiol. 18, 881 (1972); cited from earlier work
[5] = biological target: T1, Bovine Liver CLDH (glutamate dehydrogenase derived from bovine liver) (Bos taurus, UniProt P00366); experiment: Activation by ADP (reductive amination activity); assay type: biochemical; settings: 2.5 mM ADP, pH 8.3, 30° C., read-out: activity with 2.5 mM ADP (without ADP = 100%)
T1 construct: Bovine Liver CLDH; from tissue; host or cells: bovine liver
Description: (§1) A method of measuring an activity of the glutamate dehydrogenase of the present invention by means of a reductive amination will be as follows.
(§2) The above reaction mixture solution (2.9 ml) is taken in a cuvette and subjected to a preliminary heating at 30° C. for about five minutes. Then the reaction is initiated by adding 0.1 ml of an enzyme solution thereto, decrease in absorbance of 340 nm in a spectrophotometer controlled at 30° C. is recorded for 3-4 minutes and, out of its linear portion, the decrease in the absorbance per minute is determined. A blank test is carried out according to the same operations as above except that 0.1M Tris-HCl buffer (pH: 8.3) is added instead of the enzyme solution. The way of expression of an activity of the glutamate dehydrogenase is in such a manner that the amount of the enzyme by which 1 micromole of NADH is oxidized per minute under the above-mentioned conditions is defined as one unit (U).
(§3) ADP was added to the reagent for measuring the activity of glutamate dehydrogenase of the present invention (a reductive amination) to make it 2.5 mM and the resulting activity was compared with that where nothing was added.

[6] = tested on: glutamate dehydrogenase from Pseudomonas sp. 433-3 (FERM P-14092); experiment: Activation by ADP (reductive amination activity); assay type: biochemical; settings: pH 8.3, 30° C.
Description: as §1, §2, §3

T1 sequence (P00366 58-558): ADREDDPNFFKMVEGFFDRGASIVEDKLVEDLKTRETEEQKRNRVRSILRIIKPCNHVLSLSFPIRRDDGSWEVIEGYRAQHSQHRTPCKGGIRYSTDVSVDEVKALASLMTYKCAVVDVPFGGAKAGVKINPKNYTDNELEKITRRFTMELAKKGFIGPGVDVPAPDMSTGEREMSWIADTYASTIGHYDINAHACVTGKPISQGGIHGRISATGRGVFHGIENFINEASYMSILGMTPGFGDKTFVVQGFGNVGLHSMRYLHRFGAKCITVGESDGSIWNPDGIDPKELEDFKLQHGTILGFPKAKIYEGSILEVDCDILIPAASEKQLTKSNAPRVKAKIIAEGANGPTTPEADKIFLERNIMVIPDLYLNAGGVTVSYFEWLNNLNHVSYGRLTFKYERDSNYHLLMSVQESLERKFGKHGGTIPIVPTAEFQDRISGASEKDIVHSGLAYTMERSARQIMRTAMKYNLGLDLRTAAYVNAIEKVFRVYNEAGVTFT
NAD+-dependent glutamate dehydrogenase (EC 1.4.1.2) from Peptococcus aerogene, sequence (P28997 whole entry): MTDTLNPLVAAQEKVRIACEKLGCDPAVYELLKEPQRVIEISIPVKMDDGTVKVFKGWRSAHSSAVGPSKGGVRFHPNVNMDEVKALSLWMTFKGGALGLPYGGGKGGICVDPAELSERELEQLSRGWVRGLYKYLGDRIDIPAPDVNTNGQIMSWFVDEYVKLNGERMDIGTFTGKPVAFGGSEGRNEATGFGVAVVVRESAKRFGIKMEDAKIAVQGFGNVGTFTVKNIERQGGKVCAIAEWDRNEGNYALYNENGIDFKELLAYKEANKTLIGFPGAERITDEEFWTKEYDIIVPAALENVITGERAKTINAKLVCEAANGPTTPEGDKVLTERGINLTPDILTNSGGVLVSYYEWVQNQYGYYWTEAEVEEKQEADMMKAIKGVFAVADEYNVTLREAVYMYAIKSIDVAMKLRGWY

## N [ammonia]
[1]; Table 3, This Invention, read-out: Km Value to NH3
  Km: 8.5 mM
[1]; read-out: Km value to ammonia
  Km: 8.5 mM
[2]
  Km: 0.32 mM
[3]
  Km: 4.5 mM
[4]
  Km: 18.4 mM

## NC(=O)C1=CN([C@@H]2O[C@H](COP(=O)(O)OP(=O)(O)OC[C@H]3O[C@@H](n4cnc5c(N)ncnc54)[C@H](O)[C@@H]3O)[C@@H](O)[C@H]2O)C=CC1 [NADH]
[1]; read-out: Km value to NADH
  Km: 0.19 mM

## NC(=O)c1ccc[n+]([C@@H]2O[C@H](COP(=O)(O)OP(=O)([O-])OC[C@H]3O[C@@H](n4cnc5c(N)ncnc54)[C@H](O)[C@@H]3O)[C@@H](O)[C@H]2O)c1 [NAD^+]
[1]; read-out: Km value to NAD^+
  Km: 0.1 mM

## Nc1ncnc2c1ncn2[C@@H]1O[C@H](COP(=O)(O)OP(=O)(O)O)[C@@H](O)[C@H]1O [ADP]
[5]
  activity at 2500 µM: 145%
[6]
  activity with 2.5 mM ADP (without ADP = 100%): 100%

## N[C@@H](CCC(=O)O)C(=O)O [L-glutamic acid]
[1]; read-out: Km value to L-glutamic acid
  Km: 17 mM
